Patent EP1339694B1 (F. HOFFMANN-LA ROCHE AG, priority 2000, dated 2002)

Target: T1, Human Platelet IP Receptor (Homo sapiens, UniProt P43119)
T1 construct: 250 ml Platelet Rich Plasma was transferred into 250 ml centrifuge tubes and spun at 6000 g; from tissue; host or cells: membranes prepared from platelets (platelet rich plasma)
Test: In vitro Human Platelet IP Receptor Radioligand Binding Assay
Settings: not given
Protocol: In vitro Human Platelet IP Receptor Radioligand Binding Assay
The in vitro Human Platelet IP Receptor Binding Assay measures the strength of a potential drug's binding affinity to its intended target.
The following buffers were prepared using the purest available water.
250 ml Platelet Rich Plasma was transferred into 250 ml centrifuge tubes and spun at 6000 g for 10 min at 20 °C. Pellets were then resuspended in IP lysis buffer and homogenized using a polytron(setting 7, 1x20 sec. burst), brought up to a final volume of 180 ml and centrifuged at 40000 g for 15 min at 4 °C. The pellets were then resuspended in IP assay buffer, protein density determined by BCA method (Pierce) and stored in 2.0 ml vials at -80 °C for subsequent assay use.
To obtain at least 80 % specific binding, 50 µg protein/assay tube was used in a competition experiment. The final radioligand concentration was 1 to 3E-8 M.
The membranes were thawed at room temperature and then diluted in assay buffer to the appropriate concentration. First buffer, drug, radioligand, and lastly, membranes were added to the assay tubes. […] The assay tubes were filtered onto 0.3% PEI pre-treated glass fiber filtermats (GF/ B) using Packard Top Count 96 well cell harvester. The tubes were rinsed three times with ice cold 20mM Tris-HCl, 5mM MgCl2, pH=7.4 (3 x 0.5 ml/sample). Bound radioactivity was determined using liquid scintillation counting.

T1 sequence (P43119 whole entry): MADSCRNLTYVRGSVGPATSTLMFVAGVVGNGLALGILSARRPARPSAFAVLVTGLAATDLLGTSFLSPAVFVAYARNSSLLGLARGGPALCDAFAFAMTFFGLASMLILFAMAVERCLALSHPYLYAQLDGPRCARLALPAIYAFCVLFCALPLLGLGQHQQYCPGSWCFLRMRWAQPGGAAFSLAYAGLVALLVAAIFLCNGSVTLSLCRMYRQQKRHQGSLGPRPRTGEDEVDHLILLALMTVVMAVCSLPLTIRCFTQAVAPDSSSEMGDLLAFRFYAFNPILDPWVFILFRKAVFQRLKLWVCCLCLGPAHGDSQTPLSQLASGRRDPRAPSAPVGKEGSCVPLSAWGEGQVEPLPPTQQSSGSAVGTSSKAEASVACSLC

Structure (SMILES) | Ki [nM]
O=C(CCc1ccc(NC2=NCCN2)cc1)c1ccc(N2CCN(C(=O)c3ccco3)CC2)cc1 | 0.468
O=C(CCc1ccc(NC2=NCCN2)cc1)c1ccc(N2CCOCC2)cc1 [Example 3, 3-[4-(4,5-Dihydro-1H-imidazol-2-ylamino)phenyl]-1-(4-morpholin-4-ylphenyl)-propan-1-one] | 5.25

Same assay, conditions: human platelet membranes, radioligand competition, 25 °C for 60 min; read-out: Affinity towards the Human Platelet IP Receptor (pKi) (converted)

Ki [nM] | Structure (SMILES)
0.282 | O=C(CCc1ccc(NC2=NCCN2)cc1)c1ccc(Cl)cc1Cl [1-(2,4-dichlorophenyl)-3-[4-(4,5-dihydro-1H-imidazol-2-ylamino)phenyl]-propan-1-one]
56.2 | O=C(CCc1ccc(NC2=NCCN2)cc1)c1ccc(F)cc1F [1-(2,4-difluorophenyl)-3-[4-(4,5-dihydro-1H-imidazol-2-ylamino)phenyl]-propan-1-one]
9.55 | O=C(CCc1ccc(NC2=NCCN2)cc1)c1ccc(Cl)c(Cl)c1 [1-(3,4-dichlorophenyl)-3-[4-(4,5-dihydro-1H-imidazol-2-ylamino)phenyl]-propan-1-one]
22.4 | O=C(CCc1ccc(NC2=NCCN2)cc1)c1ccc(F)c(F)c1 [1-(3,4-difluorophenyl)-3-[4-(4,5-dihydro-1H-imidazol-2-ylamino)phenyl]-propan-1-one]
0.741 | O=C(CCc1ccc(NC2=NCCN2)cc1)c1cc(F)cc(F)c1 [1-(3,5-difluorophenyl)-3-[4-(4,5-dihydro-1H-imidazol-2-ylamino)phenyl]-propan-1-one]
0.708 | O=C(CCc1ccc(NC2=NCCN2)cc1)c1cc(F)c(Cl)cc1Cl [1-(4,6-dichloro-3-fluorophenyl)-3-[4-(4,5-dihydro-1H-imidazol-2-ylamino)-phenyl]propan-1-one]
0.398 | O=C(CCc1ccc(NC2=NCCN2)cc1)c1ccc(Cl)cc1 [1-(4-chlorophenyl)-3-[4-(4,5-dihydro-1H-imidazol-2-ylamino)phenyl]-propan-1-one]
6.31 | CC(=O)N1CCN(c2ccc(C(=O)CCc3ccc(NC4=NCCN4)cc3)cc2)CC1 [1-[4-(4-acetylpiperazin-1-yl)phenyl]-3-[4-(4,5-dihydro-1H-imidazol-2-ylamino)-phenyl]propan-1-one]
1.74 | O=C(CCc1ccc(NC2=NCCN2)cc1)c1ccc(Cl)c(Cl)c1Cl [3-[4-(4,5-dihydro-1H-imidazol-2-ylamino)phenyl]-1-(2,3,4-trichlorophenyl)-propan-1-one]
1 | COc1ccc(C(=O)CCc2ccc(NC3=NCCN3)cc2)c(F)c1 [3-[4-(4,5-dihydro-1H-imidazol-2-ylamino)phenyl]-1-(2-fluoro-4-methoxy-phenyl)-propan-1-one]
0.447 | O=C(CCc1ccc(NC2=NCCN2)cc1)c1ccccc1F [3-[4-(4,5-dihydro-1H-imidazol-2-ylamino)phenyl]-1-(2-fluorophenyl)propan-1-one]
0.676 | O=C(CCc1ccc(NC2=NCCN2)cc1)c1cccc(F)c1 [3-[4-(4,5-dihydro-1H-imidazol-2-ylamino)phenyl]-1-(3-fluorophenyl)propan-1-one]
11.2 | O=C(CCc1ccc(NC2=NCCN2)cc1)c1ccc(OCc2ccccc2)cc1 [3-[4-(4,5-dihydro-1H-imidazol-2-ylamino)phenyl]-1-(4-benzyloxyphenyl)-propan-1-one]
0.437 | CC(C)Oc1ccc(C(=O)CCc2ccc(NC3=NCCN3)cc2)cc1 [3-[4-(4,5-dihydro-1H-imidazol-2-ylamino)phenyl]-1-(4-isopropoxyphenyl)-propan-1-one]
1.48 | O=C(CCc1ccc(NC2=NCCN2)cc1)c1ccc(-c2ccccc2)cc1 [3-[4-(4,5-dihydro-1H-imidazol-2-ylamino)phenyl]-1-(4-phenylphenyl)-propan-1-one]
0.427 | COc1ccc2cc(C(=O)CCc3ccc(NC4=NCCN4)cc3)ccc2c1 [3-[4-(4,5-dihydro-1H-imidazol-2-ylamino)phenyl]-1-(6-methoxynaphthalen-2-yl)-propan-1-one]
1.02 | O=C(CCc1ccc(NC2=NCCN2)cc1)c1cccc2ccccc12 [3-[4-(4,5-dihydro-1H-imidazol-2-ylamino)phenyl]-1-(naphthalen-1-yl)-propan-1-one]
4.9 | O=C(CCc1ccc(NC2=NCCN2)cc1)c1ccc2ccccc2c1 [3-[4-(4,5-dihydro-1H-imidazol-2-ylamino)phenyl]-1-(naphthalen-2-yl)propan-1-one]
3.16 | O=C(CCc1ccc(NC2=NCCN2)cc1)c1ccccc1 [3-[4-(4,5-dihydro-1H-imidazol-2-ylamino)phenyl]-1-(phenyl)propan-1-one]
67.6 | CCOC(=O)N1CCN(c2ccc(C(=O)CCc3ccc(NC4=NCCN4)cc3)c(F)c2)CC1 [3-[4-(4,5-dihydro-1H-imidazol-2-ylamino)phenyl]-1-[4-(4-ethoxycarbonyl-piperazin-1-yl)-2-fluorophenyl]propan-1-one]
38.9 | CCNC(=O)N1CCN(c2ccc(C(=O)CCc3ccc(NC4=NCCN4)cc3)cc2)CC1 [3-[4-(4,5-dihydro-1H-imidazol-2-ylamino)phenyl]-1-[4-(4-ethylamino-carbonyl-piperazin-1-yl)phenyl]propan-1-one]
7.08 | CN1CCN(c2ccc(C(=O)CCc3ccc(NC4=NCCN4)cc3)cc2)CC1 [3-[4-(4,5-dihydro-1H-imidazol-2-ylamino)phenyl]-1-[4-(4-methylpiperazin-1-yl)-phenyl]propan-1-one]
58.9 | CCCOC(=O)N1CCN(c2ccc(C(=O)CCc3ccc(NC4=NCCN4)cc3)cc2)CC1 [3-[4-(4,5-dihydro-1H-imidazol-2-ylamino)phenyl]-1-[4-(4-propoxycarbonyl-piperazin-1-yl)phenyl]propan-1-one]
9.33 | CCOC(=O)N1CCN(c2ccc(C(=O)CCc3ccc(NC4=NCCN4)cc3)cc2)CC1 [Example 5, 3-[4-(4,5-Dihydro-1H-imidazol-2-ylamino)phenyl]-1-[4-(4-ethoxycarbonyl-piperazin-1-yl)-phenyl]propan-1-one]
44.7 | O=C(COc1ccc(NC2=NCCN2)cc1)c1ccc2c(c1)OCCO2 [Example 9, 1-(2,3-Dihydrobenzo[1,4]dioxin-6-yl)-2-[4-(4,5-dihydro-1H-imidazol-2-ylamino)-phenoxy] ethanone]

Structure (SMILES) | Ki [nM]
O=C(CCc1ccc(NC2=NCCN2)cc1)c1ccc(Oc2ccccc2)cc1 | 20
O=C(CCc1ccc(NC2=NCCN2)cc1)c1ccc(F)cc1 [Example 1, 3-[4-(4,5-Dihydro-1H-imidazol-2-ylamino)phenyl]-1-(4-fluorophenyl)propan-1-one] | 0.316
O=C(CCc1ccc(NC2=NCCN2)cc1)c1ccc(N2CCOCC2)cc1F [Example 4, 3-[4-(4,5-Dihydro-1H-imidazol-2-ylamino)phenyl]-1-(2-fluoro-4-morpholin-4-yl-phenyl)propan-1-one] | 18.2
CS(=O)(=O)N1CCN(c2ccc(C(=O)CCc3ccc(NC4=NCCN4)cc3)cc2)CC1 [Example 6, 3-[4-(4,5-Dihydro-1H-imidazol-2-ylamino)phenyl]-1-[4-(4-methanesulfonyl-piperazin-1-yl)phenyl]propan-1-one] | 28.2
O=C(CCCc1ccc(NC2=NCCN2)cc1)c1ccc(F)cc1 [Example 8, 4-[4-(4,5-Dihydro-1H-imidazol-2-ylamino)phenyl]-1-(4-fluorophenyl)butan-1-one] | 3.09
COc1ccc(C(=O)COc2ccc(NC3=NCCN3)cc2)cc1 [Example 10, 2-[4-(4,5-Dihydro-1H-imidazol-2-ylamino)phenoxy]-1-(4-methoxyphenyl)ethanone] | 2.75
